# Test results as given in US20180064808A1, “COMBINATION THERAPY OF BISPECIFIC ANTIBODIES SPECIFIC FOR FAP AND DR5 AND CHEMOTHERAPEUTIC AGENTS” (Hoffmann-La Roche Inc., priority 2014, published 2018).
# Experiments:
# [1] = tested on: LOX-IMVI desmoplastic melanoma xenograft; test: LOX-IMVI desmoplastic melanoma cell line based xenograft model; type: in vivo, nude mice; settings: doxorubicin alone 5 mg/kg q7d
# From the text: The in vivo antitumor efficacy of the bispecific antibody DR5-FAP (DR5 binder: VH SEQ ID NO.:7, VL SEQ ID NO.: 8, FAP binder: VH SEQ ID NO.:15, VL SEQ ID NO.: 16) could be detected in cell and fragment based patient derived (PDX) models of various tumor origin (e.g. CRC, pancreatic cancer, desmoplastic melanoma and sarcoma) transplanted on nude mice. As example data for combination efficacy of bispecific antibody DR5-FAP (DR5 binder: VH SEQ ID NO.:7, VL SEQ ID NO.: 8, FAP binder: VH SEQ ID NO.:15, VL SEQ ID NO.: 16) and chemotherapeutics that activate the intrinsic apoptosis pathway are shown for the CRC xenograft model DLD-1 and HCT116 (cell line based, co-injection model) and Co5896 (fragment based).
# The bispecific antibody DR5-FAP (DR5 binder: VH SEQ ID NO.:7, VL SEQ ID NO.: 8, FAP binder: VH SEQ ID NO.:15, VL SEQ ID NO.: 16) was provided as stock solution from Roche, Penzberg, Germany. Antibody buffer included histidine. Antibody solution was diluted appropriately in buffer from stock prior injections. An Fc mutant of the prior art DR5 specific antibody Drozitumab was provided as stock solution from Roche, Penzberg, Germany. This antibody comprises three amino acid substitutions in the Fc domain that abolish binding to an activating or inhibitory Fc receptor and/or effector function wherein said amino acid substitutions are L234A, L235A and P329G. […]
# [2] = tested on: Sarc4605 sarcoma xenograft; test: Sarc4605 sarcoma fragment based patient derived xenograft model (PDX); type: in vivo, nude mice; settings: doxorubicin alone 5 mg/kg q7d
# Capan2 = test: Combination screen PDAC cell lines (CellTiter-Glo); type: cell-based; settings: Capan2
# Procedure: (§1) A panel of CRC and PDAC cell lines was assessed and combination partners of potential clinical relevance for the respective tumor indications were used for evaluation of combination effects (CRC: irinotecan, oxaliplatin, 5-FU, MDM2 inhibitor (RG7388), Bcl-2 inhibitor (ABT199); PDAC: Abraxane, Paclitaxel, Gemcitabine, Doxorubicin, MDM2i (RG7388), Bc12i (ABT199), Bortezomib, Cyclopamine, PARP inhibitor (PJ34)).
# (§2) Cells were seeded (numbers vary depending on the cell line) in black 96-well microplate with clear, flat bottom and incubated overnight at 37° C. and 5% CO2. After checking the adherence/confluence of cells, the medium was removed and 100 μl of fresh medium containing the corresponding compound was added to each well. A sequential dilution series (1:4) of 8 concentrations per compound (n=3) were used. Corresponding DMSO concentration and media alone were used as controls.
# (§3) After incubation for 3 days at 37° C. and 5% CO2, 100 μl per well CellTiter-Glo reagent (Promega) was added to the plate. Luminescence was measured after 30 minutes agitation at room temperature. IC50-values were calculated with XL-Fit software. Each experiment with one compound was repeated at least twice.
# (§4) Cells were seeded (numbers vary depending on the cell line) in black 96-well microplate with clear, flat bottom and incubated overnight at 37° C. and 5% CO2. After checking the adherence/confluence of cells, the medium was removed and 100 μl of fresh medium containing the corresponding compound or combination was added to each well.
# (§5) A sequential 1:3 dilution series of 9 concentrations of Drozitumab/anti-human-Fc was done on a 96-well PP-V-bottom microplate (n=6). […] 25 μl/well of the Drozitumab/anti-human-Fc series were then transferred to the cells.
# (§6) After incubation for 3 days at 37° C. and 5% CO2 100 μl per well CellTiter-Glo reagent (Promega) were given to the plates. Luminescence was measured after 30 minutes agitation at room temperature.
# (§7) For each concentration of Drozitumab/anti-human-Fc and Drozitumab/anti-human-Fc+compound triplicates were done on the same plate and each experiment was repeated at least twice.
# Panc1 = test: Combination screen PDAC cell lines (CellTiter-Glo); type: cell-based; settings: Panc1
# Procedure: as §1, §2, §3, §4, §5, §6, §7
# Bxpc3 = test: Combination screen PDAC cell lines (CellTiter-Glo); type: cell-based; settings: Bxpc3
# Procedure: as §1, §2, §3, §4, §5, §6, §7
# Aspc1 = test: Combination screen PDAC cell lines (CellTiter-Glo); type: cell-based; settings: Aspc1
# Procedure: as §1, §2, §3, §4, §5, §6, §7
# FcγR mutant mice = settings: cited from earlier work
# [3] = clinical studies; cited from earlier work
# [4] = second figure of mono/combo, n.s. = not significant
"IC50 (Panc1; Homo sapiens, PANC-1, 72 h, agent alone, 3 days, read-out: IC50 monotherapy) [nM]",Fold change IC50 (DR5 ab mono vs combo) (Panc1; n.s. = not significant),Fold change IC50 (DR5 ab mono vs combo) (Bxpc3; n.s. = not significant),"IC50 (Bxpc3; Homo sapiens, BXPC-3, 72 h, agent alone, 3 days, read-out: IC50 monotherapy) [nM]",Fold change IC50 (DR5 ab mono vs combo) (Aspc1; n.s. = not significant),"IC50 (Aspc1; Homo sapiens, 72 h, agent alone, 3 days, read-out: IC50 monotherapy) [nM]",Molecule,tumor growth inhibition [1] [%],tumor growth inhibition [2] [%],% max. inhibition (combo) (Capan2; [4]),"IC50 (Capan2; Homo sapiens, Capan-2, 72 h, agent alone, 3 days, read-out: IC50 monotherapy) [nM]",% max. inhibition (combo) (Panc1; [4]),% max. inhibition (mono) (Bxpc3; first figure of mono/combo) [%],% max. inhibition (combo) (Bxpc3; [4]) [%],% max. inhibition (combo) (Aspc1; [4]),in vivo activity (FcγR mutant mice),maximally tolerated dose (MTD) [3] [mg/kg]
620,n.s.,2,4000,5,300,"COc1cccc2c1C(=O)c1c(O)c3c(c(O)c1C2=O)C[C@@](O)(C(=O)CO)C[C@@H]3O[C@H]1C[C@H](N)[C@H](O)[C@H](C)O1 [Doxorubicin, (7S,9S)-7-[(2R,4S,5S,6S)-4-amino-5-hydroxy-6-methyloxan-2-yl]oxy-6,9,11-trihydroxy-9-(2-hydroxyacetyl)-4-methoxy-8,10-dihydro-7H-tetracene-5,12-dione]",77,77,n.s.,1500,n.s.,25,70,n.s.,–,–
–,–,–,–,–,–,Drozitumab: fully human DR5 agonistic antibody described in US2007/0031414 and WO 2006/083971,–,–,–,–,–,–,–,–,inactive,> 20
